Results: patent publication US11492413B2, “Switchable antibody conjugate” (Temple University—Of The Commonwealth System of Higher …, priority 2017, dated 2022)
Like-named read-outs stand apart in the source and are kept apart here. Non-standard residues stand in square brackets, D forms with d. Residues, ends and D or L forms follow the SMILES beside them. Dolaproine = CO[C@@H]([C@@H]1CCCN1)[C@@H](C)C(=O)O; Dil = CC[C@H](C)[C@H](NC)[C@@H](CC(=O)O)OC; NMeV = CN[C@H](C(=O)O)C(C)C

Legend:
[1] = system: CD19-positive Burkitt's lymphoma cell line Ramos; experiment: In vitro cytotoxicity assay (CellTiter Glo) on Ramos; assay type: cell-based; settings: 72 hour incubation; mixtures αGCN4-Fab-MMAF:GCN4 fusion at molar ratio 2:1
Protocol: (§1) SK-BR-3 cell line (ATCC) was cultured and assayed in DMEM (Cellgro) supplemented with 10% (vol/vol) FBS, 100 IU/mL penicillin, and 100 μg/mL streptomycin. Ramos cell line (ATCC) was cultured and assayed in RPMI-1640 media mixed with the same supplements as described above. For cytotoxicity assay, SK-BR-3 cancer cells were plated in flat-bottom 96 well plates at 1000 cells, 90 μL fresh cell media/well, and were incubated overnight at 37° C., 5% CO2. The MMAF compound and protein samples were filtered (0.22 μm, EMD Millipore), serially diluted in PBS buffer as 10× stock solutions, and added in triplicate to cancer cells (10 μL/well). To prevent evaporation, the edges of the plates were filled with 200 μL of bank media. The plates were then incubated at 37° C., 5% CO2 for 72 hours, after which the ATP content of each well was measured by CellTiter Glo (Promega). The luminescence signals were detected on a Synergy H1 plate reader (BioTek). The viability of the cells treated with PBS buffer was used as a control, the signal of which was normalized as 100%. Ramos cancer cells were plated in flat-bottom 96 well plates at 10000 cells/well, and were directly treated with protein samples and MMAF control compound. The rest of the assay procedure was the same as described above.

[2] = system: Her2-positive breast cancer cell line SK-BR-3; experiment: In vitro cytotoxicity assay (CellTiter Glo) on SK-BR-3; assay type: cell-based
Protocol: as §1, with “The plates were then incubated at 37° C., 5% CO2 for 72 hours, after which the ATP content of each well was measured by CellTiter Glo (Promega).” left out

SMILES: CC[C@H](C)[C@@H]([C@@H](CC(=O)N1CCC[C@H]1[C@H](OC)[C@@H](C)C(=O)N[C@@H](Cc1ccccc1)C(=O)O)OC)N(C)C(=O)[C@@H](NC(=O)[C@@H](NC)C(C)C)C(C)C [MMAF, monomethyl auristatin F] (H-[NMeV]V[Dil][Dolaproine]F-OH)
- EC50 [1]: 89 ± 37 nM
- EC50 ([2]; 72 hour incubation, mixtures αGCN4-Fab-MMAF:GCN4 fusion at molar ratio 2:1, read-out: EC50 (nM) on SK-BR-3): 50 ± 39 nM
- EC50 ([2]; range over Ramos and SK-BR-3, 72 hour incubation, read-out: EC50s, medium cytotoxicity of positive control): 50 to 89 nM
